Test results from patent publication US7205140B2, “Nucleotide sequence for creatinine deiminase and method of use” (CampusGen GmbH, priority 2003, dated 2007).

B1: recombinant creatinine deiminase: creatinine deiminase (EC 3.5.4.21) from Tissierella creatinini, heterologously expressed in E. coli; 406 amino acid polypeptide (protein, listed as Tissierella creatinini)
chain: MMKKFINAKIYKNNEATEILVEDGKIKEIGNNLADCKEVIDLGGKMVTPPYVDPHLHLDYVYTLAELGKTGAGSGTLFEAIEMWPVFKKTLTVESVKKLALKGVMDEVSQGVQHIRTHIDVTDPKFTGLKAMLEMKEELKDIVDIQIVSFPQQGMYTYKGGRELVEEALKMGADVVGGIPHYEPAREYGEMSVKATVELAMKYDKLIDVHCDETDDPQARFIELLNALVYLEGYGAKTSASHTCSFGSADDSYAYRMIDLFKKSKINFISNPTENAYLQGRHDTYPKRRGLTRVKEFMEHGINVAFAQDSINDPWYPMGNGNMMNILDNGIHLAQIMSPQDIEKDLDLITYNGARCLNIQDKYLLEVGKDSNFIVLNGDSPFDVIRNRANVLACVRKGEFYLSKNQ

Legend:
[1] = tested on: purified heterologously expressed creatinine deiminase from Tissierella creatinini; assay: Interference studies: compound added to the reaction mixture, creatinine deiminase activity determined (coupled optical test); type: biochemical; conditions: for Maximum concentration without interference: compound added to standard reaction mixture, creatinine deiminase activity
From the text: A technique for specifically measuring the creatinine concentration of a sample includes a simple indicator reaction step is provided, whereby no complicated auxiliary measurement reactions are necessary. […] Therefore, the subject creatinine deiminase polypeptide specifically and preferentially interacts with creatinine also in presence of other substrates with high specificity, without undue interference from other molecules which would otherwise compromise the accuracy of the measured value for the creatinine concentration in the sample.
(§1) The activity of the purified recombinant enzyme was determined using a modified enzymatic method developed by Bergmeyer (Bergmeyer, H. U. (1985), Methods of enzymatic analysis 8: 488–507). This method includes the measuring of free ammonia produced during a creatinine deiminase reaction via a coupled optical test, by measuring the […] of NADH consumed by the free ammonia at […] and/or 365 nm. The initial reaction comprised the following concentrations in a final volume of 0.6 ml: TEA buffer 0.11 mol/l, pH 8.6; creatinine 1.5 mmol/l; ADP 1.11 mmol/l; DTE 1 mmol/l; NADH 0.11 mmol/l; 2-oxoglutarate 11 mmol/l; glutamate dehydrogenase 8 U/ml. After incubating the reaction components (5 min at 37° C.), 0.01 ml of the purified recombinant enzyme was transferred to a cuvette and placed into a photometer for observing the extinction acceptance reaction at 340 nm. One enzyme unit was determined to catalyze the degrading of 1 μmol creatinine/min at 37° C.
A series of interference studies was performed using the purified and expressed creatinine deiminase polypeptide in the presence of the different serum compounds. The compound was provided to the standard reaction mixture and the creatinine deiminase activity was determined using the methods described above.

[2] = Storage stability of the purified enzyme in dialysis buffer; type: physicochemical; conditions: in the dialysis buffer for several months
Procedure: These samples were dialyzed using several rounds of fresh buffer (0.05 mol/l potassium phosphate, pH 7.65/glycerine, 1:2 v/v) at 4° C. until ammonia could no longer be detected.
The purified enzyme remained stable in the dialysis buffer for several months, experiencing a loss of activity of 9.1%. The optimal pH value for the purified enzyme, when suspended in phosphate and TEA buffers, was within the range of 8.5–8.75, with maximum activity measured at 47° C.

[3] = Enzyme activity of recombinant creatinine deiminase (coupled optical test / Jaffé method); type: biochemical
Procedure: The heterologous expression of an active creatinine deiminase derived from T. creatinini in E. coli (from the recombinant cell extract) was analyzed using gel electrophoresis (FIG. 8) and by determining the enzymatic activity in the cell-free raw extracts. […] Additionally, a band for the purified creatinine deiminase appeared at this same distance of 300 kDa (see FIG. 8, lanes 3 and 5), and likewise a similar band appeared in the raw extract of T. creatinini (FIG. 8, lane 2). The predicted size for creatinine deiminase (300 kDa) is well within range of the known value (288 kDa) as determined by Gottschalk et al. 1991 (supra). The specific activity of the recombinant creatinine deiminase in the cell-free extract was determined to be about 10.2 U/mg.
Heterologous sequences expressing creatinine deiminase (EC 3.5.4.21), as derived from T. creatinini, were also purified according to methods described by Gottschalk et al. 1991 (supra). The creatinine deiminase protein was purified from 5 g of cells using ammonium sulphate precipitation and chromatography to apparent homogeneity using phenylsepharose and DEAE-Sepharose CL6B (see FIG. 9). The specific activity of the purified recombinant enzyme was determined to be 1423 U/mg (see Table 2). The enzyme was suspended in a potassium phosphate buffer (KPP; pH 7.65, 50% Glycerin) and stored at −20° C. in. The purification steps are described as follows:
as §1

Molecule | Maximum concentration without interference [1] [mg/L] | further results
NS(=O)(=O)c1cc(C(=O)O)c(NCc2ccco2)cc1Cl [Fuoresemide] | 4433 | 
Hemoglobin | 0 | 
CC(=O)O [Acetic acid] | 200 | 
N[C@@H](Cc1c[nH]cn1)C(=O)O [Histidine] | 2250 | 
Nc1cc[nH]c(=O)n1 [Cytosine] | 2000 | concentration without any interference ([1]; as stated in the text for Table 1): up to 2000 mg/ml
COc1cc(Cc2cnc(N)nc2N)cc(OC)c1OC [Trimethoprime] | 46 | 
CNC[C@H](O)c1ccc(O)c(O)c1 [Epinephrine] | 0.05 | 
Cc1cc(NS(=O)(=O)c2ccc(N)cc2)no1 [Sulphamethoxazole] | 500 | 
C[C@](N)(Cc1ccc(O)c(O)c1)C(=O)O [α-Methyl-Dopa] | 107 | 
Nc1nc(=O)[nH]cc1F [5-Fluorocytosine] | 1000 | 
CC(C)=O [Acetone] | 2000 | 
NC[C@H](O)c1ccc(O)c(O)c1 [Norepinephrine] | 1.5 | 
O=C(O)C(=O)O [Oxalic acid] | 400 | 
CN[C@H](CC(C)C)C(=O)N[C@H]1C(=O)N[C@@H](CC(N)=O)C(=O)N[C@H]2C(=O)N[C@H]3C(=O)N[C@H](C(=O)N[C@H](C(=O)O)c4cc(O)cc(O)c4-c4cc3ccc4O)[C@H](O)c3ccc(c(Cl)c3)Oc3cc2cc(c3O[C@@H]2O[C@H](CO)[C@@H](O)[C@H](O)[C@H]2O[C@H]2C[C@](C)(N)[C@H](O)[C@H](C)O2)Oc2ccc(cc2Cl)[C@H]1O [Vancomycin] | 288 | 
O=C(O)c1cc(/N=N/c2ccc(S(=O)(=O)Nc3ccccn3)cc2)ccc1O [Salazosulphapyridine] | 550 | 
CN(CC(=O)O)C(=N)N [Creatine] | 2000 | 
C[C@H](CS)C(=O)N1CCC[C@H]1C(=O)O [Captopril] | 83 | 
CC(=O)CC(=O)O [Acetoacetate] | 7.8 | 
B1 |  | loss of activity [2]: 9.1%; Km ([3]; Lineweaver Burke plot analysis): 1100 µM; specific activity of the purified recombinant enzyme ([3]; after phenylsepharose and DEAE-Sepharose CL6B): 1423 U/mg; specific activity in the cell-free extract ([3]; cell-free extract of E. coli DH5α/pKT1): about 10.2 U/mg; optimal pH value ([3]; in phosphate and TEA buffers): 8.5–8.75; Vmax ([3]; per protein): 1467 U/mg; Vmax ([3]; this enzyme preparation): 8.8 U/ml
